Results on 4 molecules are retold here after ChEMBL document CHEMBL4477252, “Optimization of microtubule affinity regulating kinase (MARK) inhibitors with improved physical properties” (Bioorg Med Chem Lett, 2016).

SMILES strings stand for the structures.

For test [1], the target named is T1, Inhibitor of nuclear factor kappa-B kinase subunit epsilon (Homo sapiens, UniProt Q14164).
T1 sequence (Q14164 whole entry): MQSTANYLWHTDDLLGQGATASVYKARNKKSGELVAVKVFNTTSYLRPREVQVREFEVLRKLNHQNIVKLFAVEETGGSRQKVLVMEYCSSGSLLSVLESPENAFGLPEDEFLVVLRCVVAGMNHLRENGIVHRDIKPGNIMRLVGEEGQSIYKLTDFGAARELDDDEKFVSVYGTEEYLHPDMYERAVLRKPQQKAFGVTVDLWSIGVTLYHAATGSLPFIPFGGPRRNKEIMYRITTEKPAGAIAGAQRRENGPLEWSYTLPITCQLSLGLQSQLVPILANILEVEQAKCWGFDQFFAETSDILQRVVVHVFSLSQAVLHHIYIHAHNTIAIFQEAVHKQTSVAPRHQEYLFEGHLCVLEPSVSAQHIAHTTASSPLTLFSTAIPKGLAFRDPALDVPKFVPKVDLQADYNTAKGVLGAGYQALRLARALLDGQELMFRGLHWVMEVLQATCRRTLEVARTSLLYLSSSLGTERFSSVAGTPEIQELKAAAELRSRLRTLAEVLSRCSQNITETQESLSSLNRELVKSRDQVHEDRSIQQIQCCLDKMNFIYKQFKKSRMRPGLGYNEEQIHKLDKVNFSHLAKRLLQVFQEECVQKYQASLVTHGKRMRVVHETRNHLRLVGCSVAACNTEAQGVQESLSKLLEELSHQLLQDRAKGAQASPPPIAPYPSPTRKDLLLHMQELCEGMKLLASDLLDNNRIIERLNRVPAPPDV
Nature of the test: Inhibition of full-length recombinant human GST-tagged IKK-epsilon expressed in baculovirus expression system by Z'-LYTE assay.

In test [2] the target is T2, 3-phosphoinositide-dependent protein kinase 1 (Homo sapiens, UniProt O15530).
T2 sequence (O15530 whole entry): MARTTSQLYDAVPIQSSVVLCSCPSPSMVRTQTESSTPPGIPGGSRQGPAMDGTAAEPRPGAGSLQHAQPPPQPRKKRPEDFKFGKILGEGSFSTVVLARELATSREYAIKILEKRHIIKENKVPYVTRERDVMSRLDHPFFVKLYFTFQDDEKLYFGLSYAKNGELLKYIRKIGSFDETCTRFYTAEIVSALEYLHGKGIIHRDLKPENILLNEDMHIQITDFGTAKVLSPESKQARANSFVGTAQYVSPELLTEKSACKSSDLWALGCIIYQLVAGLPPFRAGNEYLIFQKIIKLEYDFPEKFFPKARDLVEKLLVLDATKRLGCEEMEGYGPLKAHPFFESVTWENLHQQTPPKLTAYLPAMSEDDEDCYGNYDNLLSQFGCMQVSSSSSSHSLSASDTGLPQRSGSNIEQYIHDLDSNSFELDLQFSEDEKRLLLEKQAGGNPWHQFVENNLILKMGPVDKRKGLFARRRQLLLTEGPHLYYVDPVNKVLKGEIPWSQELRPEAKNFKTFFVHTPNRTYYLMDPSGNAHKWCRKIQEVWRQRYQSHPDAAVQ
Put plainly: Inhibition of full-length recombinant human His-tagged PDK1 expressed in baculovirus expression system by Z'-LYTE assay.

Test [3] has as its target Death-associated protein kinase 1 (Homo sapiens, UniProt P53355). Nature of the test: Inhibition of recombinant human GST-tagged DAPK1 catalytic domain expressed in baculovirus expression system by Adapta assay.
Test [4] concerns the target Receptor tyrosine-protein kinase erbB-2 (Homo sapiens, UniProt P04626). Nature of the test: Inhibition of recombinant human His-tagged cytoplasmic ERBB2 expressed in baculovirus expression system by Z'-LYTE assay.
Test [5] addresses T3, Receptor-type tyrosine-protein kinase FLT3 (Homo sapiens, UniProt P36888).
T3 sequence (P36888 whole entry): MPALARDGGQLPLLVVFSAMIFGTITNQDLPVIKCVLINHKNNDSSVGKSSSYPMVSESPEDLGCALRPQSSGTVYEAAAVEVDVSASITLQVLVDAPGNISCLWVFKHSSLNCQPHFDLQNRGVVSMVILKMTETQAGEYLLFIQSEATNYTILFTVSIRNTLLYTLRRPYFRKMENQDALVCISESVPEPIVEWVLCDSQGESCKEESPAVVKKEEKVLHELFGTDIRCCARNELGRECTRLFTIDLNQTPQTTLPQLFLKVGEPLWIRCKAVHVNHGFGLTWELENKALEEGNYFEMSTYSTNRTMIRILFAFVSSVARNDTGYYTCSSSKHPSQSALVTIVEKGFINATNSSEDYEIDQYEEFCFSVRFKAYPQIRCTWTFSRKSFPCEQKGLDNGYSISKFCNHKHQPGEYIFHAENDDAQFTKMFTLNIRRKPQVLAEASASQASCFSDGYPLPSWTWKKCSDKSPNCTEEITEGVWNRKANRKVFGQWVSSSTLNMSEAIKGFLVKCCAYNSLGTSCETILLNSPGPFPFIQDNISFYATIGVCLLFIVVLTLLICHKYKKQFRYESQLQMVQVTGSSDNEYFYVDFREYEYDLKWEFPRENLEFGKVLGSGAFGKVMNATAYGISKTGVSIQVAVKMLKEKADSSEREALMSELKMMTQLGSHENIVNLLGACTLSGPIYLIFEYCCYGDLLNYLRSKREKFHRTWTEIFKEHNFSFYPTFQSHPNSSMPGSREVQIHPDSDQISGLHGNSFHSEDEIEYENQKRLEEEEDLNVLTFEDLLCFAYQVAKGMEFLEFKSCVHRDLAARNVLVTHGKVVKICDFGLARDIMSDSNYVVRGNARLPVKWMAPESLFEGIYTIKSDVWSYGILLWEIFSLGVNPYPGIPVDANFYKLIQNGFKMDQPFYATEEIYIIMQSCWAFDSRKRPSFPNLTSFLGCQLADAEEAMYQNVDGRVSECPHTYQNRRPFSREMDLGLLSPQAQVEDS
Nature of the test: Inhibition of recombinant human His-tagged cytoplasmic FLT3 expressed in baculovirus expression system by Z'-LYTE assay.

Chain of Receptor tyrosine-protein kinase erbB-2 (P04626 whole entry): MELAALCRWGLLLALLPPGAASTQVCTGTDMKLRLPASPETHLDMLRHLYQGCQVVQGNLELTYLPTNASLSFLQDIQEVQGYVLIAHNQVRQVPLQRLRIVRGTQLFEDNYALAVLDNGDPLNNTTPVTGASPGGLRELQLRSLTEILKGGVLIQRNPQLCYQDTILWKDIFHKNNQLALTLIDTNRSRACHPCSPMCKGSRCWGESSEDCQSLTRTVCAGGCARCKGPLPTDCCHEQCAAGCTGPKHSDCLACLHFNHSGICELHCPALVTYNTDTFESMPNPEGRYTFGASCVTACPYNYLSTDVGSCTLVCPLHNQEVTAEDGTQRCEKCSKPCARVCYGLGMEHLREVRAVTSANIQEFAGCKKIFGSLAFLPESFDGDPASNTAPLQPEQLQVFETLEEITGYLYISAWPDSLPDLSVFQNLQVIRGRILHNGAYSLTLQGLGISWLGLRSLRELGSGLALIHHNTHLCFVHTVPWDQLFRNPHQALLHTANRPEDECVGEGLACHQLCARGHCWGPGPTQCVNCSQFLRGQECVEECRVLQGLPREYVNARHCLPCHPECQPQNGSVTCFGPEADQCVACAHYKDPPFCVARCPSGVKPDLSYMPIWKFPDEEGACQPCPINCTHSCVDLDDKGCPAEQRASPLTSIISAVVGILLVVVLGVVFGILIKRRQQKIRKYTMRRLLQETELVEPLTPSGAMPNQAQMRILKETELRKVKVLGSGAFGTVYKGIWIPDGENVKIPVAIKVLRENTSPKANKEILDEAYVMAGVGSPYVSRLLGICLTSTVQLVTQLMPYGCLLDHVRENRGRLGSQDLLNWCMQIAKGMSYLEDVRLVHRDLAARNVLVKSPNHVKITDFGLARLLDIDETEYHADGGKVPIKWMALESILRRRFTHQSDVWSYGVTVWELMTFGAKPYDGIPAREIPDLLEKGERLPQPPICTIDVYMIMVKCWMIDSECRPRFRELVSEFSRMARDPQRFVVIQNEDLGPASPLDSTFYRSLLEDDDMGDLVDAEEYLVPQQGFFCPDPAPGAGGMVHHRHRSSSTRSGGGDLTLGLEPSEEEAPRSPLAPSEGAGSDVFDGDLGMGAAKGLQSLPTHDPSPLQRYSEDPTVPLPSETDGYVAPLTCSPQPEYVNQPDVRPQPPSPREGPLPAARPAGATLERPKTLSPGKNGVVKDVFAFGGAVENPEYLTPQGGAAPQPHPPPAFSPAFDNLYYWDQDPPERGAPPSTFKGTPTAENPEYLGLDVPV
Chain of Death-associated protein kinase 1 (P53355 whole entry, the tested form may be a part): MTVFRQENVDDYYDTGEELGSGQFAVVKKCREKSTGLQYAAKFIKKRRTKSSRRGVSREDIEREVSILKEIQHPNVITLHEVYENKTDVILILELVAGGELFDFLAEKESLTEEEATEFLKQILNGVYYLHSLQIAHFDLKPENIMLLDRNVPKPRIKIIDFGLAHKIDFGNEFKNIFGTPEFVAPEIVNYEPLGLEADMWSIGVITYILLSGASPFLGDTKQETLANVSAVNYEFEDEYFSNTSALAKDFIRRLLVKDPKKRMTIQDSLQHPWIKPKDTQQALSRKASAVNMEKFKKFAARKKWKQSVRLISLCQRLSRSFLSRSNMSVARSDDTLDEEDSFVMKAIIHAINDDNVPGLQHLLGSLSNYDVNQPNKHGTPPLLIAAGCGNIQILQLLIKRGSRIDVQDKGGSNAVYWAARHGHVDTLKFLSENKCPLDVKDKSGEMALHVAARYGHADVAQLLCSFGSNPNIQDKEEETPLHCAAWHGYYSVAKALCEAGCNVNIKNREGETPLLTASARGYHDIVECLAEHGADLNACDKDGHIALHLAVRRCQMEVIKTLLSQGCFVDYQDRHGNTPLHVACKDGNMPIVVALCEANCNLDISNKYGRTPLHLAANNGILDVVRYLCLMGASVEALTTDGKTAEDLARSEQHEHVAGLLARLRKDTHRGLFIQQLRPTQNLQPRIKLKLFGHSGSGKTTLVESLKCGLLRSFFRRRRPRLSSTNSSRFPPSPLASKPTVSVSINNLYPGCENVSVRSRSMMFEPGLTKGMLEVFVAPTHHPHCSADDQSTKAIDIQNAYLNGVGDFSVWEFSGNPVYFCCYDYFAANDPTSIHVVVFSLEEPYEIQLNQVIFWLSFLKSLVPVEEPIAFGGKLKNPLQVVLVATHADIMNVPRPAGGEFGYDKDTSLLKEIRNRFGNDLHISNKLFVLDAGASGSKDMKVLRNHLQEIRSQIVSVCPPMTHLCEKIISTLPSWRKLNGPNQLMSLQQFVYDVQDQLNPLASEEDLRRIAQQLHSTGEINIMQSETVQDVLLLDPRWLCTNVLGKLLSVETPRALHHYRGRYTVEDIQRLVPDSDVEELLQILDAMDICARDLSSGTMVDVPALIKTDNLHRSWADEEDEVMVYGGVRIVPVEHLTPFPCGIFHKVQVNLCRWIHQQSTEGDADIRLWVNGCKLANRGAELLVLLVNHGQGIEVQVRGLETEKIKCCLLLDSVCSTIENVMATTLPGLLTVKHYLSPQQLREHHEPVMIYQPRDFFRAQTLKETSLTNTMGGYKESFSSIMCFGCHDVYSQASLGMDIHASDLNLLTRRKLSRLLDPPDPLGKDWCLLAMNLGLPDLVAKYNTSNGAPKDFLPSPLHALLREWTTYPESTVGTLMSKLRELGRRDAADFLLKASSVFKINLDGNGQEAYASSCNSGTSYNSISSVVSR

On to `Cn1cc(-c2cnc3c(-c4csc(C(=O)NCC(F)(F)F)c4)cnn3c2)cn1`, for which the IC50 in test [1] is less than 10 nM; in test [2], 53 nM; in test [3], less than 10 nM; in test [4], greater than 100000 nM; in test [5] it was less than 10 nM.
Take `Cc1sc(C(=O)N[C@@H]2[C@H](N)CCCC2(F)F)cc1-c1cnn2cc(Cl)cnc12`: the IC50 in test [1] was 48 nM; in test [2], 330 nM; in test [3], 26 nM; in test [4], greater than 100000 nM; in test [5], 580 nM.
Taken in the same sequence, the figures for `O=C(NCC(F)(F)F)c1cc(-c2cnn3cc(-c4ccc(OCCN5CCCCC5)cc4)cnc23)cs1` were less than 10 nM, 130 nM, less than 10 nM, 35000 nM and less than 10 nM.
Take `Cn1cc(-c2cnc3c(-c4csc(C(=O)N[C@@H]5CCCC[C@@H]5N)c4)cnn3c2)cn1` (racemic): the IC50 in test [1] is 7.1 nM; in test [2] it was 20 nM; in test [3], 1.9 nM; in test [4], 1000 nM; in test [5], 1.9 nM.
